Patent US20170296459A1, “METHOD OF IMPROVING THE APPEARANCE OF PERIORBITAL DYSCHROMIA” (The Procter & Gamble Company, priority 2016, published 2017)

System: B16-F1 mouse melanoma cell line
Assay: B16 melanin synthesis inhibition assay
Assay type: cell-based
Settings: B16-F1 cells, OD at 410 nm
Method: In this example, a commercially available B16-F1 mouse melanoma cell line from American Tissue Culture Collection, Virginia, USA was employed in a conventional melanin synthesis inhibition assay. The cell culture medium used in the assay is 500 mL of Dulbecco's Modified Eagle's Medium (DMEM), 50 mL Fetal Bovine Serum (FBS), and 5 mL of penicillin-streptomycin liquid. B16-F1 cells that are cultured in this medium and grown to greater than 90% confluency will synthesize melanin. While not intending to be bound by any theory, it is hypothesized that the melanin synthesis is stimulated by the culture medium and/or stress induced by growth to a high confluency. […] Equipment used in the assay include a CO2 incubator, such as a Forma Series Model 3110 by Therma Scientific, Massachusetts, USA; a hemocytometer, such as a Bright Line model by Hauser Scientific, Pennsylvania, USA; and a UV-Visible Spectrum Plate Reader, such as a SpectraMax250 from Molecular Devices, California, USA. […] Day 3: The cells from the T-150 flask are trypsinized, and the concentration of cells is determined using the hemacytometer. […] Read the 96 well plate using the UV-Vis Plate Reader at 410 nm to optically measure the amount of melanin produced between wells that are treated with the fava bean extract and control wells that are not. […] The concentration of test agent needed to provide the IC 50 is recorded.

Row | SMILES | Concentration Needed for IC 50 [v/v]
1 | Oc1ccc(OC2CCCCO2)cc1 (centres unmarked) [Deoxyarbutin] | 0.008
2 | O=c1cc(CO)occ1O [Kojic Acid] | 0.01
